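Five concentrations, 48 hours, 96-well plates. The concentration for full growth arrest is given as TGI.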
Assays:
Assay in all cases: NCI-60 cell line screen, 48 h
786-0 renal = system: 786-0 renal
A498 renal = system: A498 renal
A549 NSCLC = system: A549 NSCLC
ACHN renal = system: ACHN renal
CAKI-1 renal = system: CAKI-1 renal
COLO 205 colon = system: COLO 205 colon
DLD-1 colon = system: DLD-1 colon
DMS 114 small cell lung = system: DMS 114 small cell lung
DMS 273 small cell lung = system: DMS 273 small cell lung
EKVX NSCLC = system: EKVX NSCLC
HCC-2998 colon = system: HCC-2998 colon
HCT-116 colon = system: HCT-116 colon
HCT-15 colon = system: HCT-15 colon
HOP-18 NSCLC = system: HOP-18 NSCLC
HOP-62 NSCLC = system: HOP-62 NSCLC
HT29 colon = system: HT29 colon
IGROV1 ovarian = system: IGROV1 ovarian
KM12 colon = system: KM12 colon
KM20L2 colon = system: KM20L2 colon
LXFL 529 NSCLC = system: LXFL 529 NSCLC
M14 melanoma = system: M14 melanoma
M19-MEL melanoma = system: M19-MEL melanoma
MALME-3M melanoma = system: MALME-3M melanoma
NCI-H226 lung = system: NCI-H226 lung
NCI-H23 lung = system: NCI-H23 lung
NCI-H460 lung = system: NCI-H460 lung
NCI-H522 lung = system: NCI-H522 lung
OVCAR-3 ovarian = system: OVCAR-3 ovarian
OVCAR-4 ovarian = system: OVCAR-4 ovarian
OVCAR-5 ovarian = system: OVCAR-5 ovarian
RPMI-8226 leukemia = system: RPMI-8226 leukemia
RXF 393 renal = system: RXF 393 renal
RXF-631 renal = system: RXF-631 renal
SF-268 CNS = system: SF-268 CNS
SF-295 CNS = system: SF-295 CNS
SF-539 CNS = system: SF-539 CNS
SK-MEL-2 melanoma = system: SK-MEL-2 melanoma
SK-MEL-28 melanoma = system: SK-MEL-28 melanoma
SK-OV-3 ovarian = system: SK-OV-3 ovarian
SN12C renal = system: SN12C renal
SNB-19 CNS = system: SNB-19 CNS
SNB-75 CNS = system: SNB-75 CNS
SNB-78 CNS = system: SNB-78 CNS
SW-620 colon = system: SW-620 colon
U251 CNS = system: U251 CNS
UACC-257 melanoma = system: UACC-257 melanoma
UACC-62 melanoma = system: UACC-62 melanoma
UO-31 renal = system: UO-31 renal
CCRF-CEM leukemia = system: CCRF-CEM leukemia
HL-60(TB) leukemia = system: HL-60(TB) leukemia
HOP-92 NSCLC = system: HOP-92 NSCLC
K-562 leukemia = system: K-562 leukemia
MOLT-4 leukemia = system: MOLT-4 leukemia
OVCAR-8 ovarian = system: OVCAR-8 ovarian
SK-MEL-5 melanoma = system: SK-MEL-5 melanoma
SR leukemia = system: SR leukemia
TK-10 renal = system: TK-10 renal

Q: How did the TGI (786-0 renal) turn out when Cc1ccc(S(=O)(=O)N/N=C(/CC(=O)c2c(C)n([O-])c3ccccc3[n+]2=O)C(=O)Nc2ccc(C)c(C)c2)cc1 was run?
A: Its TGI is greater than 100 µM.

Q: And the TGI (A498 renal)?
A: Its TGI is greater than 100 µM.

Q: And the TGI (A549 NSCLC)?
A: The TGI was greater than 100 µM.

Q: And the TGI (ACHN renal)?
A: Its TGI is greater than 100 µM.

Q: What about the TGI (CAKI-1 renal) of the same compound?
A: Its TGI is greater than 100 µM.

Q: And the TGI (COLO 205 colon)?
A: Its TGI is greater than 100 µM.

Q: And the TGI (DLD-1 colon)?
A: Its TGI is greater than 100 µM.

Q: What about the TGI (DMS 114 small cell lung) of the same compound?
A: Its TGI is 67.2 µM.

Q: And the TGI (DMS 273 small cell lung)?
A: The TGI was greater than 100 µM.

Q: What about the TGI (EKVX NSCLC) of the same compound?
A: The TGI was greater than 100 µM.

Q: And the TGI (HCC-2998 colon)?
A: The TGI was greater than 100 µM.

Q: And the TGI (HCT-116 colon)?
A: Its TGI is greater than 100 µM.

Q: What about the TGI (HCT-15 colon) of the same compound?
A: Its TGI is greater than 100 µM.

Q: And the TGI (HOP-18 NSCLC)?
A: Its TGI is greater than 100 µM.

Q: What about the TGI (HOP-62 NSCLC) of the same compound?
A: The TGI was greater than 100 µM.

Q: And the TGI (HT29 colon)?
A: The TGI was greater than 100 µM.

Q: What about the TGI (IGROV1 ovarian) of the same compound?
A: Its TGI is greater than 100 µM.

Q: And the TGI (KM12 colon)?
A: The TGI was greater than 100 µM.

Q: What about the TGI (KM20L2 colon) of the same compound?
A: Its TGI is greater than 100 µM.

Q: What about the TGI (LXFL 529 NSCLC) of the same compound?
A: Its TGI is greater than 100 µM.

Q: What about the TGI (M14 melanoma) of the same compound?
A: The TGI was greater than 100 µM.

Q: What about the TGI (M19-MEL melanoma) of the same compound?
A: Its TGI is 42.6 µM.

Q: And the TGI (MALME-3M melanoma)?
A: The TGI was greater than 100 µM.

Q: And the TGI (NCI-H226 lung)?
A: Its TGI is greater than 100 µM.

Q: And the TGI (NCI-H23 lung)?
A: The TGI was greater than 100 µM.

Q: What about the TGI (NCI-H460 lung) of the same compound?
A: The TGI was greater than 100 µM.

Q: And the TGI (NCI-H522 lung)?
A: Its TGI is greater than 100 µM.

Q: And the TGI (OVCAR-3 ovarian)?
A: The TGI was 63.1 µM.

Q: What about the TGI (OVCAR-4 ovarian) of the same compound?
A: The TGI was greater than 100 µM.

Q: And the TGI (OVCAR-5 ovarian)?
A: Its TGI is greater than 100 µM.

Q: And the TGI (RPMI-8226 leukemia)?
A: The TGI was greater than 100 µM.

Q: What about the TGI (RXF 393 renal) of the same compound?
A: The TGI was greater than 100 µM.

Q: And the TGI (RXF-631 renal)?
A: The TGI was greater than 100 µM.

Q: What about the TGI (SF-268 CNS) of the same compound?
A: The TGI was greater than 100 µM.

Q: And the TGI (SF-295 CNS)?
A: The TGI was greater than 100 µM.

Q: And the TGI (SF-539 CNS)?
A: The TGI was greater than 100 µM.

Q: And the TGI (SK-MEL-2 melanoma)?
A: Its TGI is greater than 100 µM.

Q: What about the TGI (SK-MEL-28 melanoma) of the same compound?
A: Its TGI is greater than 100 µM.

Q: What about the TGI (SK-OV-3 ovarian) of the same compound?
A: Its TGI is greater than 100 µM.

Q: What about the TGI (SN12C renal) of the same compound?
A: The TGI was greater than 100 µM.

Q: And the TGI (SNB-19 CNS)?
A: Its TGI is greater than 100 µM.

Q: And the TGI (SNB-75 CNS)?
A: Its TGI is greater than 100 µM.

Q: And the TGI (SNB-78 CNS)?
A: The TGI was greater than 100 µM.

Q: What about the TGI (SW-620 colon) of the same compound?
A: The TGI was greater than 100 µM.

Q: What about the TGI (U251 CNS) of the same compound?
A: The TGI was greater than 100 µM.

Q: What about the TGI (UACC-257 melanoma) of the same compound?
A: Its TGI is greater than 100 µM.

Q: And the TGI (UACC-62 melanoma)?
A: The TGI was greater than 100 µM.

Q: What about the TGI (UO-31 renal) of the same compound?
A: The TGI was greater than 100 µM.

Q: CC/C(CC(=O)CCC(=O)Nc1c(C)cccc1C)=N\NC(=O)NN was tested. Which TGI (786-0 renal) did it give?
A: The TGI was greater than 100 µM.

Q: What about the TGI (A498 renal) of the same compound?
A: The TGI was greater than 100 µM.

Q: And the TGI (A549 NSCLC)?
A: The TGI was greater than 100 µM.

Q: What about the TGI (ACHN renal) of the same compound?
A: Its TGI is greater than 100 µM.

Q: What about the TGI (CCRF-CEM leukemia) of the same compound?
A: Its TGI is greater than 100 µM.

Q: What about the TGI (COLO 205 colon) of the same compound?
A: The TGI was greater than 100 µM.

Q: And the TGI (DLD-1 colon)?
A: Its TGI is greater than 100 µM.

Q: What about the TGI (EKVX NSCLC) of the same compound?
A: The TGI was greater than 100 µM.

Q: And the TGI (HCC-2998 colon)?
A: The TGI was greater than 100 µM.

Q: What about the TGI (HCT-116 colon) of the same compound?
A: The TGI was greater than 100 µM.

Q: And the TGI (HCT-15 colon)?
A: The TGI was greater than 100 µM.

Q: And the TGI (HL-60(TB) leukemia)?
A: The TGI was greater than 100 µM.

Q: And the TGI (HOP-18 NSCLC)?
A: The TGI was greater than 100 µM.

Q: And the TGI (HOP-92 NSCLC)?
A: The TGI was greater than 100 µM.

Q: And the TGI (HT29 colon)?
A: Its TGI is greater than 100 µM.

Q: And the TGI (IGROV1 ovarian)?
A: Its TGI is greater than 100 µM.

Q: And the TGI (K-562 leukemia)?
A: The TGI was greater than 100 µM.

Q: What about the TGI (KM12 colon) of the same compound?
A: Its TGI is greater than 100 µM.

Q: And the TGI (KM20L2 colon)?
A: The TGI was greater than 100 µM.

Q: And the TGI (LXFL 529 NSCLC)?
A: Its TGI is greater than 100 µM.

Q: And the TGI (M14 melanoma)?
A: The TGI was greater than 100 µM.

Q: What about the TGI (M19-MEL melanoma) of the same compound?
A: The TGI was greater than 100 µM.

Q: What about the TGI (MALME-3M melanoma) of the same compound?
A: Its TGI is greater than 100 µM.

Q: What about the TGI (MOLT-4 leukemia) of the same compound?
A: Its TGI is greater than 100 µM.

Q: And the TGI (NCI-H23 lung)?
A: Its TGI is greater than 100 µM.

Q: And the TGI (NCI-H460 lung)?
A: The TGI was greater than 100 µM.

Q: And the TGI (OVCAR-3 ovarian)?
A: The TGI was greater than 100 µM.

Q: What about the TGI (OVCAR-4 ovarian) of the same compound?
A: Its TGI is greater than 100 µM.

Q: And the TGI (OVCAR-5 ovarian)?
A: The TGI was greater than 100 µM.

Q: What about the TGI (OVCAR-8 ovarian) of the same compound?
A: The TGI was greater than 100 µM.

Q: What about the TGI (RXF 393 renal) of the same compound?
A: Its TGI is greater than 100 µM.

Q: And the TGI (RXF-631 renal)?
A: Its TGI is greater than 100 µM.

Q: And the TGI (SF-268 CNS)?
A: Its TGI is greater than 100 µM.

Q: What about the TGI (SF-295 CNS) of the same compound?
A: Its TGI is greater than 100 µM.

Q: What about the TGI (SF-539 CNS) of the same compound?
A: The TGI was greater than 100 µM.

Q: What about the TGI (SK-MEL-2 melanoma) of the same compound?
A: Its TGI is greater than 100 µM.

Q: What about the TGI (SK-MEL-5 melanoma) of the same compound?
A: The TGI was greater than 100 µM.

Q: And the TGI (SN12C renal)?
A: Its TGI is greater than 100 µM.

Q: What about the TGI (SNB-19 CNS) of the same compound?
A: The TGI was greater than 100 µM.

Q: And the TGI (SNB-78 CNS)?
A: Its TGI is greater than 100 µM.

Q: And the TGI (SR leukemia)?
A: Its TGI is greater than 100 µM.

Q: What about the TGI (SW-620 colon) of the same compound?
A: Its TGI is greater than 100 µM.

Q: And the TGI (TK-10 renal)?
A: The TGI was greater than 100 µM.

Q: What about the TGI (U251 CNS) of the same compound?
A: The TGI was greater than 100 µM.

Q: What about the TGI (UACC-257 melanoma) of the same compound?
A: The TGI was greater than 100 µM.

Q: And the TGI (UACC-62 melanoma)?
A: The TGI was greater than 100 µM.

Q: What about the TGI (UO-31 renal) of the same compound?
A: Its TGI is greater than 100 µM.
